Measured values taken from patent US20250122219A1 (priority 2023, published 2025).

Tests used:
[1] = test system: HIV-1 (IIIB); assay: Antiviral assay in MT-4 cells; assay type: cell-based; conditions: Human immunodeficiency virus 1, MT4, 120 h; HIV-1 IIIB in MT-4 cells, 5 days incubation, Cell Titer Glo; read-out: MT4 EC50
Protocol: Compounds were tested in a high-throughput 384-well assay format for their ability to inhibit the replication of HIV-1 (IIIB) in MT-4 cells. Compounds were serially diluted (1.3) in DMSO on 384-well polypropylene plates and further diluted 200-fold into complete RPMI media (10% FBS, 1% P/S) using the Biotek Micro Flow and Labcyte ECHO acoustic dispenser. Each plate contained up to 8 test compounds, with negative (No Drug Control) and 5 μM AZT positive controls. MT-4 cells were pre-infected with 10 μL of either RPMI (mock-infected) or a fresh 1:250 dilution of HIV-1 IIIB concentrated virus stock. Infected and uninfected MT-4 cells were further diluted in complete RPMI media and added to each plate using a Micro Flow dispenser. After 5 days incubation in a humidified and temperature controlled incubator (37° C.), Cell Titer Glo (Promega) was added to the assay plates and chemiluminescence read using an Envision plate-reader.

[2] = Cytotoxicity assay in MT-4 cells; assay type: cell-based; conditions: human; uninfected MT-4 cells, 5 days incubation, Cell Titer Glo; read-out: MT4 CC50
In short: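 Viability read by Cell Titer Glo luminescence after 5 days at 37 °C. MT-4 cells, not infected, in complete RPMI (10% FBS), received compound dilution series. Base cytotoxicity set with […] puromycin.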

Structure (SMILES) | EC50 [1] | CC50 at 5 days [2]
COC1=NO[C@@]2(CC[C@H](C)N3C[C@H]2n2cc(C(=O)NCc4ccc(F)cc4F)c(=O)c(OCOC(=O)OCCCCC(C)C)c2C3=O)C1 [Example 206, (((3′S,5S,7′R)-10′-((2,4-difluorobenzyl)carbamoyl)-3-methoxy-3′-methyl-1′,11′-dioxo-1′,4′,5′,11′-tetrahydro-3′H,4H,7′H-spiro[isoxazole-5,6′-[2,7]methanopyrido[1,2-a][1,4]diazonin]-12′-yl)oxy)methyl (5-methylhexyl) carbonate] | 2.44 nM | 37.2 µM
COC[C@@H](C)OC(=O)OCOc1c2n(cc(C(=O)NCc3ccc(F)cc3F)c1=O)[C@@H]1CN(C2=O)[C@@H](C)CC[C@]12CC(C)=NO2 [Example 213, (((3′S,5S,7′R)-10′-((2,4-difluorobenzyl)carbamoyl)-3,3′-dimethyl-1′,11′-dioxo-1′,4′,5′,11′-tetrahydro-3′H,4H,7′H-spiro[isoxazole-5,6′-[2,7]methanopyrido[1,2-a][1,4]diazonin]-12′-yl)oxy)methyl ((R)-1-methoxypropan-2-yl) carbonate] | 8.29 nM | ≥ 50 µM
COC1=NO[C@@]2(CC[C@H](C)N3C[C@H]2n2cc(C(=O)NCc4ccc(F)cc4F)c(=O)c(OC(=O)CC(C)C)c2C3=O)C1 [Example 54, (3′S,5S,7′R)-10′-((2,4-difluorobenzyl)carbamoyl)-3-methoxy-3′-methyl-1′,11′-dioxo-1′,4′,5′,11′-tetrahydro-3′H,4H,7′H-spiro[isoxazole-5,6′-[2,7]methanopyrido[1,2-a][1,4]diazonin]-12′-yl 3-methylbutanoate] | 0.504 nM | 19.4 µM
CCCC(=O)Oc1c2n(cc(C(=O)NCc3ccc(F)cc3F)c1=O)[C@@H]1CN(C2=O)[C@@H](C)CC[C@]12CC(OC)=NO2 [Example 34, (3′S,5S,7′R)-10′-((2,4-difluorobenzyl)carbamoyl)-3-methoxy-3′-methyl-1′,11′-dioxo-1′,4′,5′,11′-tetrahydro-3′H,4H,7′H-spiro[isoxazole-5,6′-[2,7]methanopyrido[1,2-a][1,4]diazonin]-12′-yl butyrate] | 0.218 nM | 16.3 µM
CCOC(=O)Oc1c2n(cc(C(=O)NCc3ccc(F)cc3F)c1=O)[C@@H]1CN(C2=O)[C@@H](C)CC[C@]12CC(OC)=NO2 [Example 124, (3′S,5S,7′R)-10′-((2,4-difluorobenzyl)carbamoyl)-3-methoxy-3′-methyl-1′,11′-dioxo-1′,4′,5′,11′-tetrahydro-3′H,4H,7′H-spiro[isoxazole-5,6′-[2,7]methanopyrido[1,2-a][1,4]diazonin]-12′-yl ethyl carbonate] | 0.898 nM | 17.1 µM
CCCCCCCCCCOC(=O)Oc1c2n(cc(C(=O)NCc3ccc(F)cc3F)c1=O)[C@@H]1CN(C2=O)[C@@H](C)CC[C@]12CC(C)=NO2 [Example 139, decyl ((3′S,5S,7′R)-10′-((2,4-difluorobenzyl)carbamoyl)-3,3′-dimethyl-1′,11′-dioxo-1′,4′,5′,11′-tetrahydro-3′H,4H,7′H-spiro[isoxazole-5,6′-[2,7]methanopyrido[1,2-a][1,4]diazonin]-12′-yl) carbonate] | 0.995 nM | 13.2 µM

Further molecules by falling EC50 [1], results first:

EC50 [1] | Structure (SMILES) | CC50 at 5 days [2]
41.2 nM | CCCCCCCCCCCCCCCCCCOC(=O)OCOc1c2n(cc(C(=O)NCc3ccc(F)cc3F)c1=O)[C@@H]1CN(C2=O)[C@@H](C)CC[C@]12CC(OC)=NO2 [Example 197, (((3′S,5S,7′R)-10′-((2,4-difluorobenzyl)carbamoyl)-3-methoxy-3′-methyl-1′,11′-dioxo-1′,4′,5′,11′-tetrahydro-3′H,4H,7′H-spiro[isoxazole-5,6′-[2,7]methanopyrido[1,2-a][1,4]diazonin]-12′-yl)oxy)methyl octadecyl carbonate] | ≥ 50 µM
32.3 nM | CCCCCCCCCCCCCCCCCC(=O)OCOc1c2n(cc(C(=O)NCc3ccc(F)cc3F)c1=O)[C@@H]1CN(C2=O)[C@@H](C)CC[C@]12CC(C)=NO2 [Example 107, (((3′S,5S,7′R)-10′-((2,4-difluorobenzyl)carbamoyl)-3,3′-dimethyl-1′,11′-dioxo-1′,4′,5′,11′-tetrahydro-3′H,4H,7′H-spiro[isoxazole-5,6′-[2,7]methanopyrido[1,2-a][1,4]diazonin]-12′-yl)oxy)methyl stearate] | ≥ 50 µM
4.75 nM | CCOC(=O)OCOc1c2n(cc(C(=O)NCc3ccc(F)cc3F)c1=O)[C@@H]1CN(C2=O)[C@@H](C)CC[C@]12CC(OC)=NO2 [Example 173, (((3′S,5S,7′R)-10′-((2,4-difluorobenzyl)carbamoyl)-3-methoxy-3′-methyl-1′,11′-dioxo-1′,4′,5′,11′-tetrahydro-3′H,4H,7′H-spiro[isoxazole-5,6′-[2,7]methanopyrido[1,2-a][1,4]diazonin]-12′-yl)oxy)methyl ethyl carbonate] | 37.9 µM
2.06 nM | CCCCCCCCCCCC(=O)Oc1c2n(cc(C(=O)NCc3ccc(F)cc3F)c1=O)[C@@H]1CN(C2=O)[C@@H](C)CC[C@]12CC(OC)=NO2 [Example 46, (3′S,5S,7′R)-10′-((2,4-difluorobenzyl)carbamoyl)-3-methoxy-3′-methyl-1′,11′-dioxo-1′,4′,5′,11′-tetrahydro-3′H,4H,7′H-spiro[isoxazole-5,6′-[2,7]methanopyrido[1,2-a][1,4]diazonin]-12′-yl dodecanoate] | 36.2 µM
1.18 nM | CCC(=O)Oc1c2n(cc(C(=O)NCc3ccc(F)cc3F)c1=O)[C@@H]1CN(C2=O)[C@@H](C)CC[C@]12CC(OC)=NO2 [Example 32, (3′S,5S,7′R)-10′-((2,4-difluorobenzyl)carbamoyl)-3-methoxy-3′-methyl-1′,11′-dioxo-1′,4′,5′,11′-tetrahydro-3′H,4H,7′H-spiro[isoxazole-5,6′-[2,7]methanopyrido[1,2-a][1,4]diazonin]-12′-yl propionate] | 31.7 µM
0.819 nM | CCCCCCCOC(=O)Oc1c2n(cc(C(=O)NCc3ccc(F)cc3F)c1=O)[C@@H]1CN(C2=O)[C@@H](C)CC[C@]12CC(C)=NO2 [Example 133, (3′S,5S,7′R)-10′-((2,4-difluorobenzyl)carbamoyl)-3,3′-dimethyl-1′,11′-dioxo-1′,4′,5′,11′-tetrahydro-3′H,4H,7′H-spiro[isoxazole-5,6′-[2,7]methanopyrido[1,2-a][1,4]diazonin]-12′-yl heptyl carbonate] | 16.7 µM
0.477 nM | CCCCCCCCCC(=O)Oc1c2n(cc(C(=O)NCc3ccc(F)cc3F)c1=O)[C@@H]1CN(C2=O)[C@@H](C)CC[C@]12CC(OC)=NO2 [Example 44, (3′S,5S,7′R)-10′-((2,4-difluorobenzyl)carbamoyl)-3-methoxy-3′-methyl-1′,11′-dioxo-1′,4′,5′,11′-tetrahydro-3′H,4H,7′H-spiro[isoxazole-5,6′-[2,7]methanopyrido[1,2-a][1,4]diazonin]-12′-yl decanoate] | 24.5 µM
0.284 nM | CCCCOC(=O)OCOc1c2n(cc(C(=O)NCc3ccc(F)cc3F)c1=O)[C@@H]1CN(C2=O)[C@@H](C)CC[C@]12CC(C)=NO2 [Example 176, butyl ((((3′S,5S,7′R)-10′-((2,4-difluorobenzyl)carbamoyl)-3,3′-dimethyl-1′,11′-dioxo-1′,4′,5′,11′-tetrahydro-3′H,4H,7′H-spiro[isoxazole-5,6′-[2,7]methanopyrido[1,2-a][1,4]diazonin]-12′-yl)oxy)methyl) carbonate] | 23 µM
